In patent US20220062330A1, “USE OF THIOSULFATE TO POTENTIATE THE ANTI-PATHOGENIC EFFECT OF LACTOBACILLI” (NEXBIOME THERAPEUTICS, priority 2012, published 2022):

Tested on: Candida albicans
Conditions: sodium thiosulfate alone in MRS medium, 1 g/l and 3 g/l, regardless of the concentration studied

Q: `O=S(O)(O)=S` [sodium thiosulfate] was tested. Which “antifungal potential on Candida albicans growth” value did it give?
A: No antifungal potential
